Assay results reported in US20160331871A1, “Medical Devices Containing Nitroprusside and Antimicrobial Agents” (Teleflex Medical Incorporated, priority 2009, published 2016).

Test system: Pseudomonas aeruginosa
Assay: MIC/FIC determination of SNP alone and in combination with antimicrobial agents (96-well microtiter plate, OD 670 nm)
Format: cell-based, Pseudomonas aeruginosa ATCC 27853
Method: A few colonies of Pseudomonas aerugionsa ATCC 27853 were removed from secondary working cultures plated on Trypticase Soy Agar (hereinafter “TSA”) with 5% sheep's blood and added to 10 ml of Trypticase Soy Broth (hereinafter “TSB”). The vials were vortexed for approximately 30 seconds and incubated for 4 hours in a shaker incubator. Following incubation, they were removed and vortexed once more. The optical densities of the inoculum suspensions were read at a wavelength of 670 nm. The inoculum suspensions were subsequently diluted in sterile Cation Adjusted Mueller-Hinton Broth (hereinafter “CAMHB”) to a final concentration of 1-5×10^6 cfu/ml.
SNP was dissolved and diluted in sterile deionized water to get working concentrations of 1%, 0.9%, 0.8%, 0.7%, 0.6%, 0.5%, 0.4%, 0.3%, 0.2%, and 0.1% in the wells of a 96-well micro titer plate.
Chlorhexidine diacetate (hereinafter “CHA”) and gentian violet (hereinafter “GV”) were dissolved in sterile water. Rifampin (hereinafter “Rif”) was dissolved in dimethylsulfoxide (hereinafter “DMSO”). Silver nano particles were dispersed in sterile water.
A sterile 96 well micro titer plate was used to test the following: SNP alone and SNP in combination with CHA, GV, Rif, and Silver at concentrations as stated above. All tests were performed in triplicate.
Once all test wells had been filled, the lid of the plate was replaced and the plate was inserted into a Ziplock™ bag and sealed to reduce evaporation. Each plate was incubated without shaking at 37° C. for 18-46 hours depending on the microorganism.
After the appropriate incubation time had been met, the micro titer plate was removed from the incubator. The plate was then read on a Bio-Tek plate reader at a wavelength of 670 nm with the lid off.

| MIC/FIC (SNP 0% (agent alone)) [PPM] | MIC/FIC (in combination with SNP 0.2%) [PPM] | MIC/FIC (in combination with SNP 0.4%) | MIC/FIC (in combination with SNP 0.6%) [PPM] | Structure (SMILES) | inhibitory concentration in combination with SNP as compared to alone |
| --- | --- | --- | --- | --- | --- |
| – | – | – | – | CC(=O)O.CC(=O)O.NC(=N\CCCCCC/N=C(N)/N=C(\N)Nc1ccc(Cl)cc1)/N=C(\N)Nc1ccc(Cl)cc1 [CHA, Chlorhexidine diacetate] | lower inhibitory concentrations |
| 32 | 4 | 4 PPM | 0 | CN(C)c1ccc(C(=C2C=CC(=[N+](C)C)C=C2)c2ccc(N(C)C)cc2)cc1 [GV, gentian violet] | lower inhibitory concentrations |
| 16 | 16 | 2-4 PPM | 0 | CO[C@H]1/C=C/O[C@@]2(C)Oc3c(C)c(O)c4c(O)c(c(/C=N/N5CCN(C)CC5)c(O)c4c3C2=O)NC(=O)/C(C)=C\C=C\[C@H](C)[C@H](O)[C@@H](C)[C@@H](O)[C@@H](C)[C@H](OC(C)=O)[C@@H]1C [Rifampin] | lower inhibitory concentrations |

| Structure (SMILES) | MIC/FIC (SNP 0% (agent alone)) [PPM] | MIC/FIC (in combination with SNP 0.2%) [PPM] | MIC/FIC (in combination with SNP 0.4%) | MIC/FIC (in combination with SNP 0.6%) [PPM] | inhibitory concentration in combination with SNP as compared to alone |
| --- | --- | --- | --- | --- | --- |
| N=C(NCCCCCCNC(=N)NC(=N)Nc1ccc(Cl)cc1)NC(=N)Nc1ccc(Cl)cc1.Nc1ccc(P(=O)(O)O)cc1.Nc1ccc(P(=O)(O)O)cc1 [CHP, chlorhexidine dipalmitate] | 4 | 4 | 1 PPM | 0 | – |
